Experimental data as given in ChEMBL document CHEMBL1159150, “Synthesis and anticonvulsant properties of BW A78U structurally-related compounds” (1995).
Calls of active or inactive are those of the source. The rule behind the calls is not given here.

What was measured:
Rattus norvegicus [1] = assay: Percent of rats protected from tonic seizure by ip administration at a dose of 10 mg/kg for anticonvulsant activity; type: functional; conditions: route intraperitoneal
Rattus norvegicus [2] = assay: Percent of rats protected from tonic seizure by ip administration at a dose of 40 mg/kg for anticonvulsant activity; type: functional; conditions: route intraperitoneal
Rattus norvegicus [3] = assay: Anticonvulsant activity for tonic seizure by ip administration at a dose of 10 mg/kg; type: functional; conditions: route intraperitoneal, read-out: ID50 (the source's name)
Rattus norvegicus [4] = assay: Anticonvulsant activity for tonic seizure by ip administration at a dose of 10 mg/kg; Inactive; type: functional, organism-based; design: dose 10 mg/kg

| SMILES | Protection (Rattus norvegicus [1]) | Protection (Rattus norvegicus [2]) | ED50 (Rattus norvegicus [3]) | ID50 (Rattus norvegicus [4]) |
| --- | --- | --- | --- | --- |
| Cc1nc(C(N)=O)c(CCc2ccccc2)s1 | 30% | 65% |  |  |
| CNC(=O)c1cn(Cc2ccccc2)cn1 | 20% | 90% |  |  |
| CNc1ncn(Cc2ccccc2F)c2ncnc1-2 | 50% | 100% | 10 mg/kg |  |
| NC(=O)c1cc(Cc2ccccc2)ccn1 | 50% | 100% |  |  |
| CNc1nccn2c(Cc3ccccc3)nnc12 | 65% | 100% |  |  |
| CNc1cc(N(Cc2ccccc2)C(C)=O)ncn1 | 20% | 55% |  |  |
| CNc1ncnc2c1ncn2Cc1ccccc1F [BW-A78U] | 100% |  | 4 mg/kg |  |
| CNc1ncnc2c1cnn2Cc1ccccc1F | 0% | 65% |  | inactive |
| Cc1nc(CCc2ccccc2)c(C(N)=O)nc1C | 0% | 30% |  |  |
